In patent publication US20240318196A1, “BRASSICA EVENT MON94100 AND METHODS OF USE THEREOF” (Monsanto Technology LLC, priority 2018, published 2024):

Assays:
[1] = test system: Plants comprising Brassica Event MON94100; test: Volunteer control: greenhouse plant injury rate after synthetic auxin herbicide spray; format: in vivo; conditions: for Plant Injury Rates (%) After Herbicide Spray, MON94100: sprayed at V3 stage, 9 days after treatment, greenhouse
Experimental: (§1) Plants comprising Brassica Event MON94100 and non-transgenic plants of the same germplasm as a control were grown in a greenhouse in a randomized complete block design. Plants were sprayed at V3 stage with one of four synthetic auxin herbicides: dicamba (as XtendiMax®), 2,4-D amine 4 (dimethylamine salt of 2,4-dichlorophenoxyacetic acid), bromoxynil (3,5-dibromo-4-hydroxybenzonitrile as Buctril®), and MCPA amine (4-chloro-2-methylphenoxy acetic acid) in a randomized pattern. Plant injury rate was taken at 9 days after treatment.

[2] = test system: non-transgenic plants of the same germplasm; test: as above; format: in vivo, Brassica; conditions: for Plant Injury Rates (%) After Herbicide Spray, Control: sprayed at V3 stage, 9 days after treatment, greenhouse
Experimental: as §1

Compound | Plant Injury Rates (%) After Herbicide Spray, MON94100 ([1]; 1× rate) [%] | Plant Injury Rates (%) After Herbicide Spray, MON94100 ([1]; 2× rate) [%] | Plant Injury Rates (%) After Herbicide Spray, Control ([2]; 1× rate) [%] | Plant Injury Rates (%) After Herbicide Spray, Control ([2]; 2× rate) [%] | Plant injury rate ([1]; commercial rate (1X), sprayed at V3, 9 days after treatment, plants comprising Brassica Event MON94100) | Plant injury rate ([2]; commercial rate (1X), sprayed at V3, 9 days after treatment, control plants) [%]
N#Cc1cc(Br)c(O)c(Br)c1 [bromoxynil, 3,5-dibromo-4-hydroxybenzonitrile] | 80.5 | 90.3 | 83.3 | 90.6 | – | –
CNC.O=C(O)COc1ccc(Cl)cc1Cl [2,4-D amine, dimethylamine salt of 2,4-dichlorophenoxyacetic acid] | 74.5 | 83.5 | 73.0 | 82.0 | – | –
COc1c(Cl)ccc(Cl)c1C(=O)O [dicamba, 3,6-dichloro-2-methoxybenzoic acid] | 0.0 | – | 21.3 | – | no injury | 21.3
Cc1cc(Cl)ccc1OCC(=O)O [MCPA, 4-chloro-2-methylphenoxy acetic acid] | 73.0 | 86.5 | 71.5 | 85.0 | – | –
